Assay [1] concerns High-generation MSCs (Old MSCs). Nature of the assay: TUNEL staining of high-generation mesenchymal stem cells. The format is cell-based. To be noted: P10-15 MSCs; 50 μM and 200 μM QCA for 72 h. How it is done: (§1) 5. Low-generation MSCs (Young MSCs) at P4-7, high-generation MSCs (Old MSCs) at P10-15, as well as old MSCs respectively treated with 50 μM and 200 μM QCA for 72 h were subjected to TUNEL staining, and the results were shown in FIG. 5A. Old MSCs with 50 μM QCA were added to the medium all the time (a fresh medium containing QCA was changed every 2-3 days), and the medium without adding QCA was used as a control. The cells were passaged for 3 consecutive generations (passaged when the cells were 80-90% confluent) before being used for β-Gal staining tests, and the results were shown in FIG. 5B.

The test system is the same in assay [2]. Nature of the assay: Ki67 immunofluorescence staining of high-generation mesenchymal stem cells. The format is cell-based. To be noted: P10-15 MSCs; 50 μM and 200 μM QCA for 72 h. The method, then:
(§2) 4. High-generation MSCs (Old MSCs) at P10-15 were plated in a 96 plate, and 50 μM, 100 μM, and 200 μM of QCA were added to the medium, respectively. The medium without adding QCA was used as a control. Low-generation MSCs (Young MSCs) at P4-7, high-generation MSCs (Old MSCs) at P10-15, as well as high-generation MSCs respectively treated with 50 μM and 200 μM QCA for 72 h, were subjected to Ki67 immunofluorescence staining, and the results were shown in FIG. 4B.

Assay [3] deals with 21 month-old C57BL6/J mice. In words: survival curves of old mice. The class given is in vivo. The following applies: 5 mg/kg QCA by gavage; Ctrl (n=19) and QCA (n=26). How it is done: (§3) (7) 21 month-old C57BL6/J mice were randomly divided into control and QCA groups. […] The test mice were placed on the grip strength meter and the tail of the mice was gently pulled, so that the mice grasped the probe forcefully with the forelimbs and hindlimbs. The readings on the grip strength meter were recorded when the mice exerted the maximum force, the arm strength value in mice were obtained by averaging 3 repetitions of the measurements, and the results were shown in FIG. 7B. Blood was taken from the tail vein of mice 4 months after administration by gavage, the proportion of neutrophils (NEU) was measured by routine blood test, and the results were shown in FIG. 7C. […] The mice were examined periodically for the presence of spontaneous tumors, and the number of mice with spontaneous tumors in each group was recorded. […] Concentrations of alanine aminotransferase (ALT), aspartate aminotransferase (AST), and lactate dehydrogenase (LDH) in plasma were measured using a HITACHI 7600 Series (Japan) biochemical detector, and the results were shown in FIG. 7F. Survival times were recorded to make the survival curves of the mice in the Ctrl (n=19) and QCA (n=26) groups, and the results were shown in FIG. 7G.

The test system of assay [4] is High-generation MSCs (Old MSCs). Nature of the assay: β-Gal staining of high-generation mesenchymal stem cells. The class given is cell-based. The following applies: 50 μM QCA all the time, passaged for 3 consecutive generations. How it is done: as §1
Assay [5] concerns W1118 fruit flies. In words: lifespan test for fruit flies (survival curves). The class given is in vivo. The following applies: male W1118; 115 μL of QCA (100 mM, 2 mg QCA/tube) in medium; days 20-30 and 40-50. How it is done:
(6) The regular medium for rearing fruit flies was added with a preservative and dispensed. After which, 115 μL of QCA (100 mM, equivalent to 2 mg QCA/tube) was added dropwise to the medium, and the same volume of 95% ethanol was added to the control tube. On days 20-30 and 40-50 of fruit flies rearing, the tubes were replaced with QCA-containing rearing tubes for rearing. 3 male W1118 fruit flies and 3 virgin W1118 fruit flies were added to each rearing tube and bred for 3-5 days for a total of 20 tubes. The parental fruit flies were cleared after about 5-6 days, and then adult occurred in about 10 days. A round of picking male fruit flies within 1 day after emergence was performed at a fixed time point each day for a total of 400 fruit flies, in which 20 fruit flies were placed in each tube labeled with the name, date, and number for a total of 20 tubes. Fruit flies were reared at 25° C., 50% humidity and 12 h light/12 h dark, the number of dead fruit flies in the tubes was counted and recorded every day, and the rearing tubes were changed every 3-4 days. The lifespan test for fruit flies in each group needed to be repeated three times independently and the recordings were entered into statistical software for analysis.

The test system of assay [6] is 21 month-old C57BL6/J mice. In words: chronic inflammation in old mice (proportion of neutrophils by routine blood test, serum TNF-α by ELISA). The format is in vivo. The following applies: 5 mg/kg QCA by consecutive gavage for 4 months. How it is done:
as §3, with “groups. 0.9% saline was given to the control group (n=7 for male mice, and n=12 for female mice); and 5 mg/kg QCA was given to the QCA group (n=9 for male mice, and n=13 for female mice) by consecutive gavage for 4 months.” for “groups.”, “Survival times were recorded to make the survival curves of the mice in the Ctrl (n=19) and QCA (n=26) groups, and the results were shown in FIG. 7G.” left out
Background: ELISA stands for enzyme-linked immunosorbent assay.

The subject of assay [7] is 21 month-old C57BL6/J mice. In words: grip strength meter, arm strength of old mice. The class given is in vivo. To be noted: 5 mg/kg QCA by consecutive gavage for 4 months. The method, then:
as §3, with “groups. 0.9% saline was given to the control group (n=7 for male mice, and n=12 for female mice); and 5 mg/kg QCA was given to the QCA group (n=9 for male mice, and n=13 for female mice) by consecutive gavage for 4 months.” for “groups.”, “Survival times were recorded to make the survival curves of the mice in the Ctrl (n=19) and QCA (n=26) groups, and the results were shown in FIG. 7G.” left out

The test system of assay [8] is fruit flies. Nature of the assay: tube-climbing test of fruit flies. The following applies: 20 male fruit flies; 17.5 cm marker; performance at 120 s. The format is in vivo.
Assay [9] concerns High-generation MSCs (Old MSCs). In words: CCK8 assay, proliferation of high-generation mesenchymal stem cells. The class given is cell-based. To be noted: P10-15 MSCs; 50 μM, 100 μM, and 200 μM QCA in the medium. The method, then: as §2
For orientation: Tetrazolium dyes change colour on reduction, which living cells bring about.

Assay [10] has as its system C57BL6/J mice older than 18 months. Nature of the assay: ⅔ partial hepatectomy model in old mice, Ki67 immunohistochemical staining of liver. The format is in vivo. The following applies: 5 mg/kg QCA intraperitoneally 2 h before and 24 h, 48 h and 72 h after ⅔PHx. How it is done: (§4) (8) Establishment of ⅔ partial hepatectomy model in old mice (⅔PHx): C57BL6/J mice older than 18 months were anesthetized with 2% isoflurane by inhalation and underwent a median abdominal incision. The left external and median lobes of the liver were resected separately with 4-0 silk sutures, and the associated vessels and bile ducts were ligated. Mice were injected intraperitoneally with 5 mg/kg QCA or an equal volume of DMSO 2 h before ⅔PHx surgery, and 24 h, 48 h and 72 h after ⅔PHx surgery, respectively. Mice were sacrificed at 6 h, 48 h and 168 h after surgery, respectively, and liver specimens and plasma were collected. The postoperative survival time of mice was recorded and used to plot survival curves. Mice were weighed in advance and livers were weighed after liver extraction so that the liver to body weight ratio could be calculated. Concentrations of alanine aminotransferase (ALT), aspartate aminotransferase (AST), and lactate dehydrogenase (LDH) in plasma were measured using a HITACHI 7600 Series (Japan) biochemical detector. Mouse liver samples collected at specific time points were fixed in 4% paraformaldehyde overnight and then embedded in paraffin. […]

For assay [11] the test system is unchanged. In words: ⅔ partial hepatectomy model in old mice, plasma ALT, AST and LDH. The class given is in vivo. To be noted: 5 mg/kg QCA intraperitoneally 2 h before and 24 h, 48 h and 72 h after ⅔PHx. How it is done: as §4
The test system of assay [12] is 21 month-old C57BL6/J mice. In words: plasma ALT, AST and LDH in old mice. The class given is in vivo. To be noted: aged mice, 5 mg/kg QCA by consecutive gavage for 4 months. The method, then: as §3, with “groups. 0.9% saline was given to the control group (n=7 for male mice, and n=12 for female mice); and 5 mg/kg QCA was given to the QCA group (n=9 for male mice, and n=13 for female mice) by consecutive gavage for 4 months.” for “groups.”, “Survival times were recorded to make the survival curves of the mice in the Ctrl (n=19) and QCA (n=26) groups, and the results were shown in FIG. 7G.” left out

The subject of assay [13] is C57BL6/J mice older than 18 months. In words: ⅔ partial hepatectomy model in old mice, liver to body weight ratio. To be noted: 5 mg/kg QCA intraperitoneally. The format is in vivo. How it is done:
(8) Establishment of ⅔ partial hepatectomy model in old mice (⅔PHx): C57BL6/J mice older than 18 months were anesthetized with 2% isoflurane by inhalation and underwent a median abdominal incision. The left external and median lobes of the liver were resected separately with 4-0 silk sutures, and the associated vessels and bile ducts were ligated. Mice were injected intraperitoneally with 5 mg/kg QCA or an equal volume of DMSO 2 h before ⅔PHx surgery, and 24 h, 48 h and 72 h after ⅔PHx surgery, respectively. Mice were sacrificed at 6 h, 48 h and 168 h after surgery, respectively, and liver specimens and plasma were collected. The postoperative survival time of mice was recorded and used to plot survival curves. Mice were weighed in advance and livers were weighed after liver extraction so that the liver to body weight ratio could be calculated. Concentrations of alanine aminotransferase (ALT), aspartate aminotransferase (AST), and lactate dehydrogenase (LDH) in plasma were measured using a HITACHI 7600 Series (Japan) biochemical detector. Mouse liver samples collected at specific time points were fixed in 4% paraformaldehyde overnight and then embedded in paraffin. A 3 μm-thick paraffin section was made for subsequent Ki67 immunohistochemical staining, and the specific procedure was as follows: after subjecting to antigen repairing in EDTA (pH 8.0), the sections were incubated with a primary antibody overnight at 4° C., and then incubated with a secondary antibody at 37° C. for 1 h. Sections were stained with diaminobenzidine and hematoxylin, and then visualized and imaged with an optical microscope.

Assay [14] shares this test system. In words: ⅔ partial hepatectomy model in old mice, survival. The class given is in vivo. To be noted: 5 mg/kg QCA intraperitoneally 2 h before and 24 h, 48 h and 72 h after ⅔PHx. How it is done: as §4
The test system of assay [15] is 21 month-old C57BL6/J mice. Nature of the assay: observation of coat status and dermatitis in old mice. The format is in vivo. The following applies: 5 mg/kg QCA by consecutive gavage for 4 months. The method, then:
as §3, with “groups. 0.9% saline was given to the control group (n=7 for male mice, and n=12 for female mice); and 5 mg/kg QCA was given to the QCA group (n=9 for male mice, and n=13 for female mice) by consecutive gavage for 4 months.” for “groups.”, “Survival times were recorded to make the survival curves of the mice in the Ctrl (n=19) and QCA (n=26) groups, and the results were shown in FIG. 7G.” left out

For the molecule `O=C(O)c1ccnc2ccccc12` [quinoline-4-carboxylic acid], in assay [1], the “nuclear DNA breakage (TUNEL staining)” value is listed as “reduces nuclear DNA breakage”. The “cell proliferation (Ki67 immunofluorescence staining)” value in [2] is “can promote cell proliferation”. Moreover, the “lifespan of the mice (survival curves)” value in assay [3] is “prolong the lifespan of the mice”. In assay [4], the “cell aging (β-Gal staining)” value is “retards cell aging”. Further, the “lifespan of fruit flies (survival curves)” value in [5] is “prolongs the lifespan of fruit flies”. Further, in [6], the “chronic inflammation (neutrophils, TNF-α)” value is listed as “down-regulate the chronic inflammation”. In [7], the “arm strength (reflecting the muscle strength)” value was “enhance the arm strength”. In assay [8], the “exercise capacity (tube-climbing test)” value is “enhances their exercise capacity”. Also, the “cell proliferation (CCK8 assay)” value in [9] is “can promote cell proliferation”. The “Ki67-positive cells of liver tissue (immunohistochemical staining)” value in [10] is reported as “more Ki67-positive cells of liver tissue in the QCA group”. Further, the “enzymatic indexes of liver injury (ALT, AST, LDH) after hepatectomy” value in [11] is “attenuates the enzymatic indexes of liver injury”. Also, in assay [12], the “enzymatic indexes of liver injury (ALT, AST, LDH)” value was “down-regulate the chronic inflammation and enzymatic indexes of liver injury in aged mice”. Also, the “regenerative liver to body weight ratio at 6 h” value in [13] (6 h after hepatectomy) was “does not significantly increase”. Moreover, the “regenerative liver to body weight ratio at 48 h” value in [13] (48 h after hepatectomy) is recorded as “significantly increases”. Besides, the “regenerative liver to body weight ratio at 168 h” value in [13] (168 h after hepatectomy) is “does not significantly increase”. Also, in [14], the “survival rate of mice after hepatectomy” value is “improves the survival rate of mice after hepatectomy”. The “symptoms such as poor coat and dermatitis” value in assay [15] is “can reduce the symptoms such as poor coat and dermatitis in old mice”.

These data come from patent US20260315454A1, “Use of quinoline-4-carboxylic acid in the preparation of anti-aging product as well as product for protecting liver and promoting liver regeneration” (Guangzhou Riju Trade Development Co., Ltd., priority 2023, published 2026).
